The nature of the data set: Stabilization/storage of gold nanoparticles by exposure to a phosphino amino acid. It is filed as physicochemical. An excerpt:
In addition to tuning particle size, an important purpose of stabilizers is to prevent agglomeration and/or oxidation of the gold nanoparticles during storage. All of the stabilizers identified above have been discovered to provide beneficial stability for gold nanoparticles produced through methods of the invention. […] Carbohydrates are an additional stabilizer discovered to be useful with practice of methods of the invention. More than one stabilizer may be employed. Any selected stabilizer can be added at any time during the synthesis of the nanoparticles. Preferably, the stabilizer is present in solution prior to introduction of the final reactant (i.e., one or both of gold salt and phosphino amino acid are added to a solution that already contains a stabilizer).
Still additional example methods of the invention are directed to methods for storing and/or stabilizing gold nanoparticles. It has been discovered the use of phosphino amino acids, with TAAC being a preferred example, provide beneficial levels of stability for storing gold nanoparticles. In an example method of the invention, gold nanoparticles (that may have been, for example, produced through a method other than one of the present invention) are exposed to a phosphino amino acid such as TAAC to prevent their agglomeration.

Take `CC(NCP(CNC(C)C(=O)O)CNC(C)C(=O)O)C(=O)O` (centres unmarked) [TAAC, trimeric alanine phosphine conjugate]: the “protection of gold nanoparticles from oxidation” value is “help “protect” gold nanoparticles from oxidation”. Moreover, where the note is “over periods of 7, 14 and even 30 days”, the “prevention of agglomeration of gold nanoparticles” value is “substantially prevent agglomeration”.

For the origin of these results see US8241393B2, “Methods and articles for gold nanoparticle production” (The Curators of the University of Missouri, priority 2005, dated 2012).
